Experimental data taken from patent publication US20120264928A1, “THERAPEUTIC PHARMACEUTICAL AGENT FOR DISEASES ASSOCIATED WITH DECREASE IN FUNCTION OF GNE PROTEIN, FOOD COMPOSITION, AND FOOD ADDITIVE” (JAPAN HEALTH SCIENCES FOUNDATION, priority 2009, published 2012).

How the values were obtained:
[1] = test system: primary cultured cells of myotubes; test: Cytotoxicity of reagent in myotube culture; format: cell-based; conditions: high concentration
[2] = test system: primary cultured cells of myotubes derived from the DMRV model mice; test: Amount of NeuAc by HPLC in myotubes from DMRV model mice; format: cell-based; conditions: 10 mM ManNAc, three days; compared with control group (10 mM Glc)
Description: The skeletal muscle tissues collected from the DMRV human patients or the model mice were lightly washed with PBS or Hank's balanced saline and were treated with 0.25% trypsin for 5 minutes. The tissues were finely cut into several millimeters with ophthalmic scissors, were digested with 0.4% collagenase II/0.25% trypsin at 37° C. for 30 minutes, and were left still to collect supernatant. The precipitate was again treated with the enzyme liquid. After being left still, the precipitate was well suspended in a DMEM-Ham's F-12 culture medium. The tissue suspension was passed through a nylon mesh to remove the tissues. The washings and the supernatant were centrifuged to collect cells. […]
In the case that the sample was cultured cells, the cells were washed with PBS three times, and 400 p. […] The fluorescent derivative thus prepared was analyzed with HPLC (JASCO Corp.) using 0.05 to 5 nmol/μl Neu5Ac and Neu5Gc standards. The amount of protein from the tissue was measured with a Bio-Rad Protein Assay kit (Bio-Rad Laboratories).
ManNAc or Ac5GlcNAcol was added to the culture media of primary cultured cells of myotubes derived from the DMRV model mice such that the final concentration of ManNAc was 10 mM and the final concentration of Ac5GlcNAcol was […]. […] The amount of NeuAc in the cultured cells was measured by the HPLC method described above (N=3).

[3] = in vivo; cited from earlier work
[4] = test system: cells of animals having GNE gene mutation and normal animals; conditions: cited from earlier work
[5] = administration of free N-acetylneuraminic acid; cited from earlier work

CC(=O)N[C@@H]1C(OC(C)=O)O[C@H](COC(C)=O)[C@@H](OC(C)=O)[C@@H]1OC(C)=O (some centres unmarked) [Ac4ManNAc, Tetra-O-acetyl-N-acetylmannosamine]
cytotoxicity [1]: has cytotoxicity when the Ac4ManNAc concentration is high

CC(=O)N[C@@H]1C(O)O[C@H](CO)[C@@H](O)[C@@H]1O (some centres unmarked) [ManNAc, N-acetylmannosamine, reference compound]
amount of NeuAc in the myotubes [2]: increased the amount of NeuAc

CC(=O)N[C@H]1[C@H]([C@H](O)[C@H](O)CO)OC(O)(C(=O)O)C[C@@H]1O (some centres unmarked) [NeuAc, N-acetylneuraminic acid]
half-life in the blood of animals [3]: very short
incorporation into cells [4]: difficult to incorporate into cells
effect of increasing N-acetylneuraminic acid in ganglioside [5]: no particular effect
